Assays:
C57BL/6 male mice [1] = test: PCP-induced hyperactivity; format: in vivo; settings: PCP 5 mg/kg, p<0.001
Method: Psychostimulant-induced hyperactivity is measured by injecting animals with PCP or amphetamine and monitoring the animals' activity levels in the VersaMax chambers (Accuscan Instruments, Columbus, Ohio) measuring 40×40 cm. Locomotor activity is detected by photobeam breaks as the animal crosses each beam. The animal is placed in the center of the field and left undisturbed for a period of time (20 min to 2 hr) to measure its spontaneous activity in a novel environment. Measurements used to assess locomotor activity include: horizontal activity, total distance traveled, vertical activity (rearing events—animal raises up on hindlimbs), rotation, stereotypy, and distance traveled in the center compared to total distance traveled (center:total distance ratio). Psychostimulants, including dopamine agonist amphetamine and NMDA antagonist PCP, induce psychosis-like conditions manifested as hyperactivity and increased stereotypic behavior. Known antipsychotics are able to reverse psychostimulant-induced hyperactivity and increased stereotypy.

C57BL/6 male mice [2] = test: Conditioned avoidance response (CAR); format: in vivo
Text: Conditioned avoidance response (CAR) is a behavioral test to evaluate antipsychotic effect of a test compound. It utilizes a shuttle box (Med Associates, St. Albans, Vt.) with two equal chambers separated by a retractable door. Each chamber is fitted with metal grid floor that is capable of delivering electric shocks independently. A computer program is used to implement the testing paradigm as well as record the animal's movement between the two chambers through infrared beam sensors. The testing paradigm is as the follows. A mouse is placed into one chamber. A light (conditioned stimulus, CS) comes on. Five seconds later, mild electric shocks (0.4 mA) (unconditioned stimulus, US) are delivered to the chamber where the mouse is located (as detected by infrared beams) until the mouse escapes to the adjacent chamber or until 10 sec has elapsed. The US and CS always co-terminate. With randomized inter-trial intervals averaging 15 sec, 30 such CS-US pairing trials are given to each mouse each day. For each trial, an escape response is registered if the mouse crosses to the other chamber after being shocked (i.e., during the 10-sec US period), and an avoidance response is registered if the mouse crosses to the other chamber during the first 5-sec CS only period. The animals are trained in such paradigm for 15-20 days, during which the average percentage of avoidance responses will improve to 60-80%. […] These trained animals are then used for compound testing using the same paradigm.
C57BL/6 male mice were trained in the CAR paradigm to predict and avoid the noxious stimulus, reaching a plateau of approximately 20-25 avoidance responses per 30 trials (“training plateau”) each day. The mice were then injected with compound or vehicle via i.p., and 20 minutes later they were tested for 30 trials in the CAR paradigm. Vehicle treatment and compound treatment were given to the same animals on alternating days, and the effect of compound in reducing avoidance response was analyzed through within-subject comparison (paired t-test).

[3] = target: T1, recombinant human PDE 10A1 (Homo sapiens, UniProt Q9Y233); test: PDE10 biochemical assay (modified two-step method of Thompson and Appleman, or SPA with [3H]-cGMP); settings: PDE10 inhibition
T1 construct: made in house; host or cells: Sf9 insect cells, baculovirus
Method: Compounds of this invention may be assayed to determine their IC50 values by a modification of the two-step method of Thompson and Appleman (Biochemistry 10; 311-316; 1971). In short, cAMP is spiked with (^3H)cAMP and incubated with PDE10 and various concentrations of a compound of structure (I). After the appropriate incubation time, the reaction is terminated by heating. The mixture is then subjected to treatment with snake venom phosphatase. The phosphatase hydrolyzes any AMP in the mixture, but leaves unreacted cAMP intact. Thus, by separating cAMP from the mixture and determining its concentration (by radiography), the percent of inhibition can be determined. IO50 values can be calculated by performing the experiment at several concentrations using standard graphical means. A detailed description of the actual technique used for IC50 assays are shown in Example 8.
The phosphodiesterase (PDE) assay was performed using recombinant human PDE 1A3, 2A3, 3 catalytic region, 4 catalytic region, 5 catalytic region, 7A, 8A, 9A2, 10A1 and 11A1 enzymes expressed in a baculoviral system using Sf9 cells. PDE activity was measured using a modification of the two-step method of Thompson and Appleman described above which was adapted for 96 well plate format. […] The final assay volume was 110 μl with assay buffer (10 mM MgCl2; 40 mM Tris.HCl; pH 7.4). Reactions were initiated with enzyme and incubated with (^3H)—substrate and substance for 20 minutes at 30° C. The reaction was terminated by denaturing the enzyme (heating the reaction to 70° C. for 2 minutes). […] The soluble fraction (50 μl) was then added to microscint-20 (200 μl) and counted on a Top Count Plate reader. Radioactivity units were plotted against inhibitor concentration and IC50 values obtained using Graph Pad Prism software.
Alternatively, phosphodiesterase activity was measured by scintillation proximity assay (SPA) with [^3H]-cGMP as substrate. […] Inhibition was evaluated at 8 concentrations in duplicate. […] The mixture was shaken, allowed to settle for 3 hours, and counted in a Wallac plate counter. […]

C57BL/6 male mice [4] = test: Novel object recognition test (PCP-disrupted); format: in vivo; settings: 10 mg/kg i.p. with PCP 5 mg/kg, tested 24 h later, p<0.01 vs PCP-treated group
Method: The antipsychotic effect of a test compound may also be evaluated by a novel object recognition test. In a novel object recognition test, mice are housed singly for 1-2 days and then injected with vehicle, PCP, or PCP plus the test compound. Twenty minutes after injection, the mice are presented with and allowed to explore two identical objects for 30 minutes. At the end of the exploration period the objects are removed. Twenty-four hours later each mouse is presented with a pair of objects, one familiar and one novel. After a variable delay, the mice begin to explore the objects. The time exploring each object is measured for 4 minutes starting from the first approach to either object. The fraction of total exploration time spent studying the novel object is recorded as a measure of novelty recognition.
At the end of the exploration period, the objects were removed. Twenty-four hours later, each mouse was presented with a pair of objects, one familiar and one novel, and the time exploring each object was measured for 4 minutes starting from the first approach to either object.

C57BL/6 male mice [5] = settings: 50 mg/kg i.p., 30 min after injection, vs vehicle control
C57BL/6 male mice [6] = test: Amphetamine-induced hyperactivity; format: in vivo; settings: 50 mg/kg i.p., amphetamine 5 mg/kg, vs vehicle+amph control, p<0.01
PDE10 = settings: Soderling and Beavo 2000, read-out: IC50 (50% inhibitory concentration); cited from earlier work
[7] = 0.2 mg/kg i.p., vs vehicle+PCP control
[8] = 50 mg/kg i.p., vs vehicle+PCP control

T1 sequence (Q9Y233 1-779 isoform Q9Y233-1): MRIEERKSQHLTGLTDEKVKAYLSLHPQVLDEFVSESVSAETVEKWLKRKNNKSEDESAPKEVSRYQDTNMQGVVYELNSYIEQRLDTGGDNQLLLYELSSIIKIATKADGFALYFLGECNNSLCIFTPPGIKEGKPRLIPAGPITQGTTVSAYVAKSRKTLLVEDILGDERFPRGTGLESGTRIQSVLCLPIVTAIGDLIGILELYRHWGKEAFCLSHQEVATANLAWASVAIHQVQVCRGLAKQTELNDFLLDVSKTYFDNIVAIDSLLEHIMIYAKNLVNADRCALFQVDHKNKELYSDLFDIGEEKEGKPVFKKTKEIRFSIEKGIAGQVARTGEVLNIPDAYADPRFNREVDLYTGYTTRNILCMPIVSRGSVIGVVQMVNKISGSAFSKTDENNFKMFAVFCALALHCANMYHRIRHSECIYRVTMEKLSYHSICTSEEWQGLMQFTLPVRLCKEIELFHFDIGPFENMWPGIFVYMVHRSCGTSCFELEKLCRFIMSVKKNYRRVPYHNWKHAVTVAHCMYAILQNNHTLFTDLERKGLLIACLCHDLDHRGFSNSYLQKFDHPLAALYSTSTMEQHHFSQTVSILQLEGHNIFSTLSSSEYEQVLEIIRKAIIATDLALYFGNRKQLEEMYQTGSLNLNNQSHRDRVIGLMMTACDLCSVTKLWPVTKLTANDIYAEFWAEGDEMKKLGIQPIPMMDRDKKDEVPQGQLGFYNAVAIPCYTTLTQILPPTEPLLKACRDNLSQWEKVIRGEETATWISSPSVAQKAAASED

COc1cc(/C=N/NC(=O)CSc2cc(C)nc3ccccc23)cc(OC)c1O [Compound 5-110]
hyperactivity induced by PCP (C57BL/6 male mice [1]; 30 mg/kg): significantly reduces
stereotypy induced by PCP (C57BL/6 male mice [1]; 30 mg/kg): significantly reduces
number of avoidance response (C57BL/6 male mice [2]; 10 mg/kg, procedure as in Example 12, p<0.01): significantly reduces

COc1cc(/C=N/NC(=O)CC2Sc3ccccc3NC2=O)cc(OC)c1OC (stereo not drawn) [Compound 1-1, (E)-2-(3-oxo-3,4-dihydro-2H-benzo[B][1,4]thiazin-2-yl)-N′-(3,4,5-trimethoxybenzylidene)acetohydrazide]
IC50 [3]: ≤ 1000 nM

O=C(CCCN1CCC(O)(c2ccc(Cl)cc2)CC1)c1ccc(F)cc1 [haloperidol, reference compound]
hyperactivity induced by PCP (C57BL/6 male mice [1]; [7]): significantly reduce
stereotypy induced by PCP (C57BL/6 male mice [1]; [7]): significantly reduce
number of avoidance response (C57BL/6 male mice [2]; 0.15 mg/kg i.p., tested 20 min later, 30 trials, p<0.001): significantly reduces

COc1ccc2nc(C)cc(SCC(=O)NN=Cc3cc(OC)c(OC)c(OC)c3)c2c1 [Compound 5-184]
novel object recognition performance (C57BL/6 male mice [4]): able to restore

CCOc1ccc(/C=N/NC(=O)CSc2nc3ccccc3n2Cc2ccccc2)cc1OC [Compound 4-1, (E)-2-(1-benzyl-1H-benzo[d]imidazol-2-ylthio)-N′-(4-ethoxy-3-methoxybenzylidene)acetohydrazide]
IC50 [3]: ≤ 1000 nM

COc1ccc(/C=N/NC(=O)CSc2cc(C)nc3ccccc23)cc1OC [Compound 5-1, (E)-N′-(3,4-dimethoxybenzylidene)-2-(2-methylquinolin-4-ylthio)acetohydrazide]
hyperactivity induced by PCP (C57BL/6 male mice [1]; [8]): completely abolishes
stereotypy induced by PCP (C57BL/6 male mice [1]; [8]): completely abolishes
startle response (C57BL/6 male mice [5]): does not affect
PPI at 3 different prepulse levels (C57BL/6 male mice [5]; p<0.05, p<0.01): significantly increases
number of avoidance response (C57BL/6 male mice [2]; 30 mg/kg i.p., tested 20 min later, 30 trials, p<0.001): significantly reduces
hyperactivity induced by amphetamine (C57BL/6 male mice [6]): partially but significantly reduce
stereotypy induced by amphetamine (C57BL/6 male mice [6]): partially but significantly reduce
IC50 [3]: ≤ 1000 nM

CC(C)Cn1c(=O)n(C)c(=O)c2[nH]cnc21 [IBMX]
IC50 (PDE10): 2600 nM

Source: patent US8278327B2, “PDE10 inhibitors and related compositions and methods” (Omeros Corporation, priority 2006, dated 2012)
